Data reported in PubChem BioAssay (NCI).
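Results reflect a 48-hour exposure of cells in 96-well plates to compound at five concentrations. GI50 marks 50% less growth. At the TGI there is no net growth.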

What was measured:
Test in all cases: NCI-60 cell line screen, 48 h
[1] = tested on: OVCAR-5 ovarian
[2] = tested on: A498 renal
[3] = tested on: BT-549 breast
[4] = tested on: U251 CNS
[5] = tested on: A549 NSCLC
[6] = tested on: PC-3 prostate
[7] = tested on: SNB-75 CNS
[8] = tested on: IGROV1 ovarian
[9] = tested on: HS 578T breast
[10] = tested on: TK-10 renal
[11] = tested on: OVCAR-3 ovarian
[12] = tested on: NCI-H226 lung
[13] = tested on: OVCAR-8 ovarian
[14] = tested on: MDA-MB-468 breast
[15] = tested on: CCRF-CEM leukemia
[16] = tested on: UACC-62 melanoma
[17] = tested on: MOLT-4 leukemia
[18] = tested on: M14 melanoma
[19] = tested on: COLO 205 colon
[20] = tested on: SW-620 colon
[21] = tested on: HOP-62 NSCLC
[22] = tested on: MDA-MB-231 breast
[23] = tested on: UACC-257 melanoma
[24] = tested on: SK-MEL-28 melanoma
[25] = tested on: SNB-19 CNS
[26] = tested on: ACHN renal
[27] = tested on: HCT-116 colon
[28] = tested on: NCI/ADR-RES ovarian
[29] = tested on: MCF7 breast
[30] = tested on: HT29 colon
[31] = tested on: K-562 leukemia
[32] = tested on: 786-0 renal
[33] = tested on: MALME-3M melanoma
[34] = tested on: NCI-H522 lung
[35] = tested on: KM12 colon
[36] = tested on: SK-MEL-5 melanoma
[37] = tested on: HCC-2998 colon
[38] = tested on: OVCAR-4 ovarian
[39] = tested on: SK-OV-3 ovarian
[40] = tested on: NCI-H460 lung
[41] = tested on: SF-268 CNS
[42] = tested on: SF-295 CNS
[43] = tested on: MDA-MB-435
[44] = tested on: RPMI-8226 leukemia
[45] = tested on: HCT-15 colon
[46] = tested on: SK-MEL-2 melanoma
[47] = tested on: EKVX NSCLC
[48] = tested on: SN12C renal
[49] = tested on: LOX IMVI melanoma
[50] = tested on: SR leukemia
[51] = tested on: UO-31 renal
[52] = tested on: SF-539 CNS
[53] = tested on: DU-145 prostate
[54] = tested on: T-47D breast
[55] = tested on: HOP-92 NSCLC
[56] = tested on: HL-60(TB) leukemia
[57] = tested on: NCI-H23 lung
[58] = tested on: CAKI-1 renal
[59] = tested on: RXF 393 renal

## CC(C)(C)OC(=O)N1C/C(=C\c2ccc(F)cc2)C(=O)/C(=C/c2ccc(F)cc2)C1
[1]
  GI50: 2.18 µM
  TGI: 5.59 µM
[2]
  GI50: 17.1 µM
  TGI: 34.6 µM
[3]
  GI50: 1.82 µM
  TGI: 3.73 µM
[4]
  GI50: 1.44 µM
  TGI: 2.96 µM
[5]
  GI50: 6.72 µM
  TGI: 29 µM
[6]
  GI50: 1.9 µM
  TGI: 6.41 µM
[7]
  GI50: 2.53 µM
  TGI: 19.9 µM
[8]
  GI50: 2.14 µM
  TGI: 4.82 µM
[9]
  GI50: 2.26 µM
  TGI: 7.68 µM
[10]
  GI50: 4.01 µM
  TGI: 16.4 µM
[11]
  GI50: 1.99 µM
  TGI: 4.46 µM
[12]
  GI50: 3.64 µM
  TGI: 14.8 µM
[13]
  GI50: 1.83 µM
  TGI: 3.78 µM
[14]
  GI50: 1.85 µM
  TGI: 3.75 µM
[15]
  GI50: 1.81 µM
  TGI: > 100 µM
[16]
  GI50: 1.78 µM
  TGI: 4.17 µM
[17]
  GI50: 3.5 µM
  TGI: > 100 µM
[18]
  GI50: 2.02 µM
  TGI: 4.5 µM
[19]
  GI50: 3.49 µM
  TGI: 12.1 µM
[20]
  GI50: 0.455 µM
  TGI: 1.7 µM
[21]
  GI50: 13.1 µM
  TGI: 26.9 µM
[22]
  GI50: 2.16 µM
  TGI: 5.27 µM
[23]
  GI50: 2.06 µM
  TGI: 5.19 µM
[24]
  GI50: 2.17 µM
  TGI: 5.51 µM
[25]
  GI50: 2.65 µM
  TGI: 8.72 µM
[26]
  GI50: 1.87 µM
  TGI: 3.68 µM
[27]
  GI50: 0.355 µM
  TGI: 1.28 µM
[28]
  GI50: 1.89 µM
  TGI: 4.39 µM
[29]
  GI50: 0.991 µM
  TGI: 2.46 µM
[30]
  GI50: 1.91 µM
  TGI: 3.72 µM
[31]
  GI50: 0.643 µM
  TGI: > 100 µM
[32]
  GI50: 1.94 µM
  TGI: 3.98 µM
[33]
  GI50: 2.24 µM
  TGI: 5.15 µM
[34]
  GI50: 1.63 µM
  TGI: 3.17 µM
[35]
  GI50: 1.89 µM
  TGI: 4.23 µM
[36]
  GI50: 1.71 µM
  TGI: 3.51 µM
[37]
  GI50: 1.84 µM
  TGI: 3.26 µM
[38]
  GI50: 3.22 µM
  TGI: 19.5 µM
[39]
  GI50: 8.24 µM
  TGI: 21.9 µM
[40]
  GI50: 3.22 µM
  TGI: 10.7 µM
[41]
  GI50: 3.02 µM
  TGI: 11.7 µM
[42]
  GI50: 1.97 µM
  TGI: 3.98 µM
[43]
  GI50: 1.73 µM
  TGI: 3.32 µM
[44]
  GI50: 0.379 µM
  TGI: 2.64 µM
[45]
  GI50: 1.5 µM
  TGI: 3.22 µM
[46]
  GI50: 2.65 µM
  TGI: 9.67 µM
[47]
  GI50: 2.56 µM
  TGI: 6.61 µM
[48]
  GI50: 1.82 µM
  TGI: 4.12 µM
[49]
  GI50: 1.28 µM
  TGI: 2.55 µM
[50]
  GI50: 0.335 µM
  TGI: > 100 µM
[51]
  GI50: 1.77 µM
  TGI: 3.94 µM
[52]
  GI50: 1.94 µM
  TGI: 3.81 µM
[53]
  GI50: 3.5 µM
  TGI: 13.7 µM
[54]
  GI50: 3.18 µM
  TGI: 15.9 µM
[55]
  GI50: 2.51 µM
  TGI: 9.66 µM
[56]
  GI50: 2.88 µM
  TGI: > 100 µM
[57]
  GI50: 2.17 µM
  TGI: 5.3 µM
[58]
  GI50: 2.07 µM
  TGI: 5.5 µM
[59]
  GI50: 2.92 µM
  TGI: 8.29 µM
